Assay [1] has as its system MDA-MB-231 cells. Nature of the assay: Inhibition of proliferation of triple-negative breast cancer cells, CellTiter-Glo. It counts as cell-based. The following applies: Homo sapiens, 120 h; MDA-MB-231, cultured for 5 days. Put shortly:
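MDA-MB-231 cells pre-cultured 24 h (5% CO2, 37 °C), then exposed to compound for 5 days at 12 three-fold dilutions, final 10 μM to 0.05 nM. Viability read by CellTiter-Glo luminescence after 10 min at 37 °C; growth inhibition calculated relative to untreated solvent-control cells.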

The subject of assay [2] is SHP-77. Nature of the assay: Inhibition of proliferation of small cell lung cancer cells, CellTiter-Glo. It counts as cell-based. As to conditions: Homo sapiens, SHP77, 120 h; SHP-77, cultured for 5 days. Summed up:
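SHP-77 cells at 2,000–3,000 cells/well, cultured 24 h at 37° C, 5% CO2, then given 12 threefold compound dilutions, final 10 μM to 0.05 nM, for 5 days. Viability by CellTiter-Glo luminescence relative to solvent control. GI50 from concentration–response.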

Assay [3] addresses T1, TTK (Homo sapiens, UniProt P33981).
T1 sequence (P33981 1-857): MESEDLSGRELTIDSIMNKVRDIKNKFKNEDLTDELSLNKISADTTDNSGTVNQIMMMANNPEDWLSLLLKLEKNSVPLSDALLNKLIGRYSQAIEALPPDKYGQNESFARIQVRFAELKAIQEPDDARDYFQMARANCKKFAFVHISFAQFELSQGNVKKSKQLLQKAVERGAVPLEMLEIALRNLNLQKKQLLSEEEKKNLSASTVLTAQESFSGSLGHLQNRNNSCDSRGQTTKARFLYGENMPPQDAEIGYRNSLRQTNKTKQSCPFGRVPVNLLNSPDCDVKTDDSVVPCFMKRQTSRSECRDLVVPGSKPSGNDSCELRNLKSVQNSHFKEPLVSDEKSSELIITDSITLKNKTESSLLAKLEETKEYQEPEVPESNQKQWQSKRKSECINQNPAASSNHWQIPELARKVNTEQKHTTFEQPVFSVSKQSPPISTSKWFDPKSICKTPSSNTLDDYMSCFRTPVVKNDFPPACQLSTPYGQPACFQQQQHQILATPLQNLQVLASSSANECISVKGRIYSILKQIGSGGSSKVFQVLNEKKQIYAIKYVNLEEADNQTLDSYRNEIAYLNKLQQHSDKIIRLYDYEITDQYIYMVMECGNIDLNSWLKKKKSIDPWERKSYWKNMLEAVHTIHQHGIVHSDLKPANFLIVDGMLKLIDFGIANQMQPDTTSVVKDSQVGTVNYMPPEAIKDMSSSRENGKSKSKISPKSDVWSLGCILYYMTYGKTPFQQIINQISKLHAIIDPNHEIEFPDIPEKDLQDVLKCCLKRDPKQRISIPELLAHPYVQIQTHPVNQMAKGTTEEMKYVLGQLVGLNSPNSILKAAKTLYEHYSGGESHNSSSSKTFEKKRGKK
The assay is described as follows: TTK enzyme activity, ADP-Glo kinase assay. The following applies: purified human TTK, ATP 10 μM, 25° C., 2 hours. Details: purchased SignalChem T20-10G. The assay is classed as biochemical. Summed up: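 Purified human TTK (25 ng) incubated with 10 μM ATP and substrate (0.2 μg) for 2 h at 25 °C in Tris-HCl pH 7.4, MgCl2, BSA, DTT buffer. ADP formation read by ADP-Glo; inhibition calculated against untreated solvent control.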

Counter-ions that a name gives are not always drawn. A value given as a limit tells only on which side of the number the result lay.

As for `N#Cc1c[nH]c2nc(Nc3ccc(N4CCCS4(=O)=O)c(F)c3)nc(NC3CCCC3)c12` [Example 173, 4-(cyclopentylamino)-2-((4-(1,1-dioxidoisothiazolidin-2-yl)-3-fluorophenyl)amino)-7H-pyrrolo[2,3-d] pyrimidine-5-carbonitrile], the GI50 is 100 to 1000 nM in assay [1] and less than 100 nM in assay [2]. The compound also showed a half-maximal inhibitory concentration (IC50) in assay [3] of less than 50 nM.

Consider `COc1cc(-c2ccnn2C)c(F)cc1Nc1nc(NC2CCCC2)c2c(C#N)c[nH]c2n1` [Example 103, 4-(cyclopentylamino)-2-((5-fluoro-2-methoxy-4-(1-methyl-1H-pyrazol-5-yl)phenyl)amino)-7H-pyrrolo[2,3-d] pyrimidine-5-carbonitrile], for which the GI50 in assay [1] and in assay [2] was 100 to 1000 nM in each case. In addition, the IC50 in assay [3] was 200 to 1000 nM.

Take `COc1cc(-c2ccnn2C)ccc1Nc1nc(NC2CCCC2)c2cc[nH]c2n1` [Example 113, N^4-cyclopentyl-N^2-(2-methoxy-4-(1-methyl-1H-pyrazol-5-yl)phenyl)-7H-pyrrolo[2,3-d] pyrimidine-2,4-diamine]: the GI50 in assay [1] and in assay [2] was 100 to 1000 nM throughout. The IC50 in assay [3] was 50 to 200 nM.

`CN(C)S(=O)(=O)CCNc1nc(Nc2ccc(-c3ccnn3C)c3c2OCCO3)nc2[nH]cc(C#N)c12` [Example 85, 2-((5-cyano-2-((8-(1-methyl-1H-pyrazol-5-yl)-2,3-dihydrobenzo[b][1,4]dioxin-5-yl)amino)-7H-pyrrolo[2,3-d]pyrimidin-4-yl)amino)-N,N-dimethylethane-1-sulfonamide]: the GI50 in assay [1] was 100 to 1000 nM; in assay [2] it was less than 100 nM. The same compound displayed a half-inhibitory concentration (IC50) in assay [3] of less than 50 nM.

With `Cn1nccc1-c1ccc(Nc2nc(NC3CCOC(C)(C)C3)c3c(C(F)(F)F)c[nH]c3n2)c2c1OCCO2` (stereo not drawn) [Example 172, N^4-(2,2-dimethyltetrahydro-2H-pyran-4-yl)-N^2-(8-(1-methyl-1H-pyrazol-5-yl)-2,3-dihydrobenzo[b][1,4]dioxin-5-yl)-5-(trifluoromethyl)-7H-pyrrolo[2,3-d] pyrimidine-2,4-diamine], the concentration for 50% growth inhibition (GI50) in assay [1] and in assay [2] was less than 100 nM in each case. This compound also showed a 50% inhibitory concentration (IC50) in assay [3] of less than 50 nM.

On to `COc1cc(Nc2nc(NC3CCCCC3)c3c(C#N)c[nH]c3n2)ccc1-c1c(C)noc1C` [Example 140, 4-(cyclohexylamino)-2-((4-(3,5-dimethylisoxazol-4-yl)-3-methoxyphenyl)amino)-7H-pyrrolo[2,3-d] pyrimidine-5-carbonitrile], for which the GI50 in assay [1] and in assay [2] was less than 100 nM each time. The 50% inhibitory concentration (IC50) in assay [3] was 200 to 1000 nM.

With `N#Cc1c[nH]c2nc(Nc3ccc(N4CCCCS4(=O)=O)c(F)c3)nc(NC3CCCC3)c12` [Example 57, 4-(cyclopentylamino)-2-((4-(1,1-dioxido-l,2-thiazinan-2-yl)-3-fluorophenyl)amino)-7H-pyrrolo[2,3-d] pyrimidine-5-carbonitrile], the GI50 was 100 to 1000 nM in assay [1] and less than 100 nM in assay [2]. The IC50 in assay [3] was 50 to 200 nM.

Take `COCCNc1nc(Nc2ccc(-c3cnn(C)c3)cc2OC)nc2[nH]cc(C#N)c12` [Example 97, 2-((2-methoxy-4-(1-methyl-1H-pyrazol-4-yl)phenyl)amino)-4-((2-methoxyethyl)amino)-7H-pyrrolo[2,3-d] pyrimidine-5-carbonitrile]: the GI50 in assay [1] and in assay [2] was less than 100 nM throughout. In assay [3], this compound returned an IC50 of less than 50 nM.

Consider `COc1cc(-c2ccnn2C)ccc1Nc1nc(C2=CCCCC2)c2c(C#N)c[nH]c2n1` [Example 129, 4-(cyclohex-1-en-1-yl)-2-((2-methoxy-4-(1-methyl-1H-pyrazol-5-yl)phenyl)amino)-7H-pyrrolo[2,3-d] pyrimidine-5-carbonitrile], for which the GI50 in assay [1] and in assay [2] was 100 to 1000 nM each time. Moreover, the IC50 in assay [3] was in the range of 200 to 1000 nM.

For the compound `COc1cc(-c2c(C)noc2C)ccc1Nc1nc(NC2CCOCC2)c2c(C#N)c[nH]c2n1` [Example 91], the GI50 in assay [1] and in assay [2] was less than 100 nM throughout. The compound also yielded an IC50 in assay [3] of less than 50 nM.

Regarding `Cn1nccc1-c1ccc(Nc2cc(NC3CCCC3)c3c(C#N)c[nH]c3n2)c2c1OCCO2` [Example 88, 4-(cyclopentylamino)-6-((8-(1-methyl-1H-pyrazol-5-yl)-2,3-dihydrobenzo[b][1,4]dioxin-5-yl)amino)-1H-pyrrolo[2,3-b] pyridine-3-carbonitrile], the 50% growth inhibitory concentration (GI50) in assay [1] and in assay [2] was less than 100 nM each time. Besides, the half-maximal inhibitory concentration (IC50) in assay [3] lay in the range of 50 to 200 nM.

For `Cn1nccc1-c1ccc(Nc2nc(C3CC3)c3c(C#N)c[nH]c3n2)c2c1OCCO2` [Example 112, 4-cyclopropyl-2-((8-(1-methyl-1H-pyrazol-5-yl)-2,3-dihydrobenzo[b][1,4]dioxin-5-yl)amino)-7H-pyrrolo[2,3-d] pyrimidine-5-carbonitrile], the GI50 in assay [1] was 100 to 1000 nM; in assay [2], less than 100 nM. The IC50 in assay [3] is less than 50 nM.

In the case of `Cn1nccc1-c1ccc(Nc2nc(NC3CC3)c3c(C#N)c[nH]c3n2)c2c1OCCO2` [Example 99, 4-(cyclopropylamino)-2-((8-(1-methyl-1H-pyrazol-5-yl)-2,3-dihydrobenzo[b][1,4]dioxin-5-yl)amino)-7H-pyrrolo[2,3-d] pyrimidine-5-carbonitrile], the GI50 in assay [1] and in assay [2] was less than 100 nM in each case. The compound further returned an IC50 in assay [3] of less than 50 nM.

Regarding `O=C1CCCN1c1ccc(Nc2nc(NC3CCOCC3)c3c(C(F)(F)F)c[nH]c3n2)c2c1OCCO2` [Example 108, 1-(8-((4-((tetrahydro-2H-pyran-4-yl)amino)-5-(trifluoromethyl)-7H-pyrrolo[2,3-d]pyrimidin-2-yl)amino)-2,3-dihydrobenzo[b][1,4]dioxin-5-yl)pyrrolidin-2-one], the GI50 in assay [1] and in assay [2] was 100 to 1000 nM throughout. This compound gave an IC50 in assay [3] of less than 50 nM.

Turning to `Cn1cc(-c2ccc(Nc3nc(NC4CCOC(C)(C)C4)c4c(C#N)c[nH]c4n3)c3c2OCCO3)cn1` (stereo not drawn) [Example 145, 4-((2,2-dimethyltetrahydro-2H-pyran-4-yl)amino)-2-((8-(1-methyl-1H-pyrazol-4-yl)-2,3-dihydrobenzo[b][1,4]dioxin-5-yl)amino)-7H-pyrrolo[2,3-d] pyrimidine-5-carbonitrile], the concentration for 50% growth inhibition (GI50) in assay [1] and in assay [2] was less than 100 nM each time. The IC50 in assay [3] is less than 50 nM.

With `Cn1cc(-c2ccc(Nc3nc(NC4CCOCC4)c4c(C#N)c[nH]c4n3)c3c2OCCO3)cn1` [Example 89, 2-((8-(1-methyl-1H-pyrazol-4-yl)-2,3-dihydrobenzo[b][1,4]dioxin-5-yl)amino)-4-((tetrahydro-2H-pyran-4-yl)amino)-7H-pyrrolo[2,3-d] pyrimidine-5-carbonitrile], the concentration for 50% growth inhibition (GI50) in assay [1] and in assay [2] was less than 100 nM each time. In assay [3], this compound came in with an IC50 of less than 50 nM.

As for `COc1cc(-c2ccnn2C)ccc1Nc1cc(NC2CCCC2)c2c(C#N)c[nH]c2n1` [Example 87, 4-(cyclopentylamino)-6-((2-methoxy-4-(l-methyl-1H-pyrazol-5-yl)phenyl)amino)-1H-pyrrolo[2,3-b] pyridine-3-carbonitrile], the 50% growth inhibitory concentration (GI50) in assay [1] and in assay [2] was less than 100 nM in each case. This compound also came in with an IC50 in assay [3] of 50 to 200 nM.

For the compound `N#Cc1c[nH]c2nc(Nc3ccc(N4CCCS4(=O)=O)cc3)nc(NC3CCOCC3)c12` [Example 166, 2-((4-(1,1-dioxidoisothiazolidin-2-yl)phenyl)amino)-4-((tetrahydro-2H-pyran-4-yl)amino)-7H-pyrrolo[2,3-d] pyrimidine-5-carbonitrile], the GI50 in assay [1] and in assay [2] was less than 100 nM in each case. Moreover, in assay [3], the IC50 is less than 50 nM.

With `Cn1nccc1-c1ccc(Nc2nc(NCC3CCCC3)c3c(C#N)c[nH]c3n2)c2c1OCCO2` [Example 50, 4-((cyclopentylmethyl)amino)-2-((8-(1-methyl-1H-pyrazol-5-yl)-2,3-dihydrobenzo[b][1,4]dioxin-5-yl)amino)-7H-pyrrolo[2,3-d] pyrimidine-5-carbonitrile hydrochloride], the GI50 in assay [1] and in assay [2] was less than 100 nM throughout. In assay [3], this compound registered a concentration for half-maximal inhibition (IC50) of 50 to 200 nM.
